Experimental data reported in PubChem BioAssay (NCI).
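Grown in 96-well plates, cells were treated for 48 hours with each compound at five concentrations. Insufficient inhibition: endpoint recorded as highest concentration tested. Here, GI50 denotes the concentration required for 50% inhibition of growth. TGI is the concentration that stops growth completely.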

Assays:
Assay in all cases: inhibition of tumour cell growth, NCI panel, 48 h
IGROV1 ovarian = test system: IGROV1 ovarian
M14 melanoma = test system: M14 melanoma
HT29 colon = test system: HT29 colon
SF-539 CNS = test system: SF-539 CNS
SK-MEL-2 melanoma = test system: SK-MEL-2 melanoma
CCRF-CEM leukemia = test system: CCRF-CEM leukemia
A549 NSCLC = test system: A549 NSCLC
SNB-19 CNS = test system: SNB-19 CNS
SNB-75 CNS = test system: SNB-75 CNS
OVCAR-3 ovarian = test system: OVCAR-3 ovarian
NCI-H460 lung = test system: NCI-H460 lung
SF-268 CNS = test system: SF-268 CNS
BT-549 breast = test system: BT-549 breast
OVCAR-5 ovarian = test system: OVCAR-5 ovarian
HL-60(TB) leukemia = test system: HL-60(TB) leukemia
UACC-257 melanoma = test system: UACC-257 melanoma
U251 CNS = test system: U251 CNS
HCT-116 colon = test system: HCT-116 colon
KM12 colon = test system: KM12 colon
MDA-MB-435 = test system: MDA-MB-435
MDA-MB-231 breast = test system: MDA-MB-231 breast
T-47D breast = test system: T-47D breast
CAKI-1 renal = test system: CAKI-1 renal
HS 578T breast = test system: HS 578T breast
RXF 393 renal = test system: RXF 393 renal
MALME-3M melanoma = test system: MALME-3M melanoma
UO-31 renal = test system: UO-31 renal
MCF7 breast = test system: MCF7 breast
PC-3 prostate = test system: PC-3 prostate
SR leukemia = test system: SR leukemia
COLO 205 colon = test system: COLO 205 colon
HOP-92 NSCLC = test system: HOP-92 NSCLC
NCI/ADR-RES ovarian = test system: NCI/ADR-RES ovarian
SW-620 colon = test system: SW-620 colon
NCI-H522 lung = test system: NCI-H522 lung
OVCAR-8 ovarian = test system: OVCAR-8 ovarian
ACHN renal = test system: ACHN renal
LOX IMVI melanoma = test system: LOX IMVI melanoma
HOP-62 NSCLC = test system: HOP-62 NSCLC
EKVX NSCLC = test system: EKVX NSCLC
786-0 renal = test system: 786-0 renal
DU-145 prostate = test system: DU-145 prostate
RPMI-8226 leukemia = test system: RPMI-8226 leukemia
NCI-H23 lung = test system: NCI-H23 lung
A498 renal = test system: A498 renal
MOLT-4 leukemia = test system: MOLT-4 leukemia
SF-295 CNS = test system: SF-295 CNS
NCI-H226 lung = test system: NCI-H226 lung
OVCAR-4 ovarian = test system: OVCAR-4 ovarian
TK-10 renal = test system: TK-10 renal
HCT-15 colon = test system: HCT-15 colon
SK-OV-3 ovarian = test system: SK-OV-3 ovarian
SK-MEL-5 melanoma = test system: SK-MEL-5 melanoma
HCC-2998 colon = test system: HCC-2998 colon
SN12C renal = test system: SN12C renal
UACC-62 melanoma = test system: UACC-62 melanoma
K-562 leukemia = test system: K-562 leukemia

COc1ccc2c(O)c(/C=C3\N=Nc4ccccc43)oc2c1C[C@@H]1CCNC[C@H]1F
GI50 (IGROV1 ovarian): 10.9 µM
TGI (IGROV1 ovarian): 26.2 µM
GI50 (M14 melanoma): 6.12 µM
TGI (M14 melanoma): 21.4 µM
GI50 (HT29 colon): 2700 nM
TGI (HT29 colon): 11 µM
GI50 (SF-539 CNS): 1600 nM
TGI (SF-539 CNS): 3.06 µM
GI50 (SK-MEL-2 melanoma): 17 µM
TGI (SK-MEL-2 melanoma): 32.5 µM
GI50 (CCRF-CEM leukemia): 2330 nM
TGI (CCRF-CEM leukemia): 6.1 µM
GI50 (A549 NSCLC): 13.5 µM
TGI (A549 NSCLC): 28 µM
GI50 (SNB-19 CNS): 9.29 µM
TGI (SNB-19 CNS): 28.2 µM
GI50 (SNB-75 CNS): 8.46 µM
TGI (SNB-75 CNS): 21.5 µM
GI50 (OVCAR-3 ovarian): 1990 nM
TGI (OVCAR-3 ovarian): 3.98 µM
GI50 (NCI-H460 lung): 2020 nM
TGI (NCI-H460 lung): 4.1 µM
GI50 (SF-268 CNS): 3.13 µM
TGI (SF-268 CNS): 14.1 µM
GI50 (BT-549 breast): 12.8 µM
TGI (BT-549 breast): 26.1 µM
GI50 (OVCAR-5 ovarian): 10.5 µM
TGI (OVCAR-5 ovarian): 24 µM
GI50 (HL-60(TB) leukemia): 16 µM
TGI (HL-60(TB) leukemia): 37.8 µM
GI50 (UACC-257 melanoma): 16.2 µM
TGI (UACC-257 melanoma): 32 µM
GI50 (U251 CNS): 3.17 µM
TGI (U251 CNS): 10.6 µM
GI50 (HCT-116 colon): 1650 nM
TGI (HCT-116 colon): 3.17 µM
GI50 (KM12 colon): 695 nM
TGI (KM12 colon): 12 µM
GI50 (MDA-MB-435): 11.3 µM
TGI (MDA-MB-435): 24.4 µM
GI50 (MDA-MB-231 breast): 2420 nM
TGI (MDA-MB-231 breast): 7.33 µM
GI50 (T-47D breast): 18.5 µM
TGI (T-47D breast): 40.8 µM
GI50 (CAKI-1 renal): 12.3 µM
TGI (CAKI-1 renal): 25 µM
GI50 (HS 578T breast): 10.3 µM
TGI (HS 578T breast): 28.7 µM
GI50 (RXF 393 renal): 1660 nM
TGI (RXF 393 renal): 3.17 µM
GI50 (MALME-3M melanoma): 3330 nM
TGI (MALME-3M melanoma): 22.5 µM
GI50 (UO-31 renal): 7.55 µM
TGI (UO-31 renal): 22.1 µM
GI50 (MCF7 breast): 3440 nM
TGI (MCF7 breast): 19.5 µM
GI50 (PC-3 prostate): 3260 nM
TGI (PC-3 prostate): 15.4 µM
GI50 (SR leukemia): 1500 nM
TGI (SR leukemia): 5.48 µM
GI50 (COLO 205 colon): 1880 nM
TGI (COLO 205 colon): 5.05 µM
GI50 (HOP-92 NSCLC): 13.3 µM
TGI (HOP-92 NSCLC): 29.5 µM
GI50 (NCI/ADR-RES ovarian): 10.5 µM
TGI (NCI/ADR-RES ovarian): 25.9 µM
GI50 (SW-620 colon): 2510 nM
TGI (SW-620 colon): 11.7 µM
GI50 (NCI-H522 lung): 1670 nM
TGI (NCI-H522 lung): 3.94 µM
GI50 (OVCAR-8 ovarian): 2280 nM
TGI (OVCAR-8 ovarian): 5.53 µM
GI50 (ACHN renal): 1740 nM
TGI (ACHN renal): 3.41 µM
GI50 (LOX IMVI melanoma): 1600 nM
TGI (LOX IMVI melanoma): 2.99 µM
GI50 (HOP-62 NSCLC): 11.1 µM
TGI (HOP-62 NSCLC): 24.6 µM
GI50 (EKVX NSCLC): 12.2 µM
TGI (EKVX NSCLC): 25.5 µM
GI50 (786-0 renal): 1700 nM
TGI (786-0 renal): 3.22 µM
GI50 (DU-145 prostate): 11.2 µM
TGI (DU-145 prostate): 23.7 µM
GI50 (RPMI-8226 leukemia): 7.05 µM
TGI (RPMI-8226 leukemia): 30.5 µM
GI50 (NCI-H23 lung): 10.6 µM
TGI (NCI-H23 lung): 24.6 µM
GI50 (A498 renal): 11.3 µM
TGI (A498 renal): 25.6 µM
GI50 (MOLT-4 leukemia): 4.5 µM
TGI (MOLT-4 leukemia): 21.1 µM
GI50 (SF-295 CNS): 3310 nM
TGI (SF-295 CNS): 15.3 µM
GI50 (NCI-H226 lung): 13 µM
TGI (NCI-H226 lung): 31.9 µM
GI50 (OVCAR-4 ovarian): 11.4 µM
TGI (OVCAR-4 ovarian): 26.6 µM
GI50 (TK-10 renal): 15 µM
TGI (TK-10 renal): 29.4 µM
GI50 (HCT-15 colon): 14.2 µM
TGI (HCT-15 colon): 28.9 µM
GI50 (SK-OV-3 ovarian): 17.2 µM
TGI (SK-OV-3 ovarian): 31.7 µM

Clc1ccc(Nc2ccnc(N3CCN(c4ccnc5cc(Cl)ccc45)CC3)n2)cc1
GI50 (IGROV1 ovarian): 3.82 µM
TGI (IGROV1 ovarian): > 100 µM
GI50 (M14 melanoma): 1.77 µM
TGI (M14 melanoma): 4.16 µM
GI50 (HT29 colon): 2030 nM
TGI (HT29 colon): 4.88 µM
GI50 (CCRF-CEM leukemia): 3070 nM
TGI (CCRF-CEM leukemia): 20.6 µM
GI50 (A549 NSCLC): 3.32 µM
TGI (A549 NSCLC): > 100 µM
GI50 (SNB-19 CNS): 3.68 µM
TGI (SNB-19 CNS): 74.5 µM
GI50 (SNB-75 CNS): 1.79 µM
TGI (SNB-75 CNS): 7.29 µM
GI50 (OVCAR-3 ovarian): 2930 nM
TGI (OVCAR-3 ovarian): 9.87 µM
GI50 (NCI-H460 lung): 2330 nM
TGI (NCI-H460 lung): 6.76 µM
GI50 (SF-268 CNS): 3.33 µM
TGI (SF-268 CNS): 16.2 µM
GI50 (SK-MEL-5 melanoma): 1810 nM
TGI (SK-MEL-5 melanoma): 3.66 µM
GI50 (BT-549 breast): 2.13 µM
TGI (BT-549 breast): 6.92 µM
GI50 (HL-60(TB) leukemia): 3.54 µM
TGI (HL-60(TB) leukemia): 20 µM
GI50 (HCC-2998 colon): 3.39 µM
TGI (HCC-2998 colon): 9.63 µM
GI50 (UACC-257 melanoma): 3.05 µM
TGI (UACC-257 melanoma): 13.5 µM
GI50 (U251 CNS): 2.84 µM
TGI (U251 CNS): 11.1 µM
GI50 (HCT-116 colon): 1990 nM
TGI (HCT-116 colon): 6.38 µM
GI50 (SN12C renal): 3000 nM
TGI (SN12C renal): 28.6 µM
GI50 (KM12 colon): 3040 nM
TGI (KM12 colon): 11.5 µM
GI50 (MDA-MB-435): 1.86 µM
TGI (MDA-MB-435): 5.99 µM
GI50 (MDA-MB-231 breast): 2220 nM
TGI (MDA-MB-231 breast): 7.22 µM
GI50 (T-47D breast): 1.99 µM
TGI (T-47D breast): 8.53 µM
GI50 (CAKI-1 renal): 2.47 µM
TGI (CAKI-1 renal): 15.6 µM
GI50 (UACC-62 melanoma): 1950 nM
TGI (UACC-62 melanoma): 6.97 µM
GI50 (HS 578T breast): 1.75 µM
TGI (HS 578T breast): 7.79 µM
GI50 (RXF 393 renal): 2350 nM
TGI (RXF 393 renal): 7.65 µM
GI50 (MALME-3M melanoma): 2320 nM
TGI (MALME-3M melanoma): 9.82 µM
GI50 (K-562 leukemia): 2560 nM
TGI (K-562 leukemia): 7.94 µM
GI50 (UO-31 renal): 1.28 µM
TGI (UO-31 renal): 5.61 µM
GI50 (MCF7 breast): 1960 nM
TGI (MCF7 breast): 6.87 µM
GI50 (PC-3 prostate): 1980 nM
TGI (PC-3 prostate): 13.3 µM
GI50 (SR leukemia): 2510 nM
TGI (SR leukemia): 8.75 µM
GI50 (COLO 205 colon): 1920 nM
TGI (COLO 205 colon): 4.63 µM
GI50 (HOP-92 NSCLC): 0.935 µM
TGI (HOP-92 NSCLC): 4.18 µM
GI50 (NCI/ADR-RES ovarian): 2.68 µM
TGI (NCI/ADR-RES ovarian): 7.83 µM
GI50 (SW-620 colon): 2880 nM
TGI (SW-620 colon): 11.6 µM
GI50 (NCI-H522 lung): 1650 nM
TGI (NCI-H522 lung): 4.94 µM
GI50 (OVCAR-8 ovarian): 3150 nM
TGI (OVCAR-8 ovarian): 21.3 µM
GI50 (LOX IMVI melanoma): 1840 nM
TGI (LOX IMVI melanoma): 3.58 µM
GI50 (HOP-62 NSCLC): 3.1 µM
TGI (HOP-62 NSCLC): 20.9 µM
GI50 (786-0 renal): 2380 nM
TGI (786-0 renal): 7.88 µM
GI50 (DU-145 prostate): 4.8 µM
TGI (DU-145 prostate): 31.6 µM
GI50 (RPMI-8226 leukemia): 2.75 µM
TGI (RPMI-8226 leukemia): 15.1 µM
GI50 (NCI-H23 lung): 4.32 µM
TGI (NCI-H23 lung): 52.3 µM
GI50 (A498 renal): 0.603 µM
TGI (A498 renal): 6.91 µM
GI50 (MOLT-4 leukemia): 2.94 µM
TGI (MOLT-4 leukemia): 9.97 µM
GI50 (SF-295 CNS): 1730 nM
TGI (SF-295 CNS): 4.23 µM
GI50 (NCI-H226 lung): 3.96 µM
TGI (NCI-H226 lung): 23.4 µM
GI50 (OVCAR-4 ovarian): 2.56 µM
TGI (OVCAR-4 ovarian): > 100 µM
GI50 (TK-10 renal): 3.43 µM
TGI (TK-10 renal): 8.5 µM
GI50 (HCT-15 colon): 2.49 µM
TGI (HCT-15 colon): 10 µM
GI50 (SK-OV-3 ovarian): 3.28 µM
TGI (SK-OV-3 ovarian): 44.7 µM
